According to patent US20240158440A1, “PEPTIDE AND COMPOSITION CONTAINING PEPTIDE AS ACTIVE INGREDIENT” (MORINAGA MILK INDUSTRY CO., LTD., priority 2021, published 2024):
No end group written: not given here.

Columns and labels:
Type in all cases: in vivo
male ddy mice [1] = assay: Tail suspension test; conditions: for Immobile Time: control 99.0; for Immobile Time (second): 30 minutes before the test, control 88.9, *P<0.05 vs Control
Procedure: A tail suspension test used for screening an antidepressant was conducted. When a mouse is hung by fixing its tail and thus put under inescapable conditions, it is believed that the mouse first tries to escape and moves but becomes immobile by despair with the time. On the other hand, in a mouse treated with an antidepressant, the time of escaping behavior increases, and the immobile time decreases. That is, when the immobile time decreases, the drug is evaluated to have an antidepressive effect.
The WPH synthesized in Production Example 1 was administered at a dose of 1 mg, 10 mg or 100 mg per 1 kg body weight to male ddy mice 30 minutes before the test, and 30 minutes later, the mice were hung by fixing their tails to conduct the test (WPH administration group, n=9-11). For six minutes after starting, the time with immobile behavior was recorded.
Moreover, as a control, the same test was conducted using male ddy mice to which the peptide as the test substance was not administered (control group, n=9-11).
From the obtained results, the times (second) with immobile behavior were calculated as an indicator of the antidepressive activity.
The peptide NLPPLT synthesized in Production Example 2 was administered at a dose of 10 μg or 30 μg per 1 kg body weight to male ddy mice 30 minutes before the test, and 30 minutes later, the mice were hung by fixing their tails to conduct the test (peptide NLPPLT administration group, n=5-6). For six minutes after starting, the time with immobile behavior was recorded.
Moreover, as a control, the same test was conducted using male ddy mice to which the peptide as the test substance was not administered (control group, n=5-6). […]

male ddy mice [2] = assay: Elevated plus maze test
From the text: An elevated plus maze having a plus shape in which two flat plates (arms) of 25 cm×5 cm were crossed was placed at a height of 50 cm from the floor. One type of the arms is closed arms having transparent walls with a height of 15 cm, and a mouse can walk safely without fear of falling. The other arms are open arms without such walls, and the sides are open. […] Through anxiolytic treatment of a mouse, however, the time of stay in the open arms tends to be longer. Thus, in a confirmation test of an anxiolytic action, the anxiolytic activity becomes higher as the time of stay of a mouse in the open arms is longer or as the number of entries is higher. […]
The peptide NLPPLT synthesized in Production Example 2 was administered at a dose of 3 μg or 10 μg per 1 kg body weight to male ddy mice 30 minutes before the test, and 30 minutes later, each mouse was put on the central platform where the open arms crossed the closed arms to conduct the test (peptide NLPPLT administration group, n=6). For five minutes after starting, the total time of stay of the mouse on the open arms (time in open arms), the number of entries into the open arms (visit to open arms) and the total number of entries into the arms (total visits) were recorded.
Moreover, as a control, the same test was conducted using male ddy mice to which the peptide as the test substance was not administered (control group, n=6).
Furthermore, to examine the mechanism of action, the same test was conducted using male ddy mice to which 10 mg/kg of an antagonist of the serotonin 5-HT1A receptor, WAY100135 (manufactured by Tocris Bioscience) was orally administered in addition to 10 μg/kg body weight of the peptide NLPPLT synthesized in Production Example 2 (peptide NLPPLT+serotonin antagonist administration group, n=5).
From the obtained results, the proportions (%) of the time of stay on the open arms and the proportions (%) of the number of entries into the open arms were calculated as indicators of the anxiolytic activity, and the differences with a statistical significance were examined by the Tukey-Kramer method.

male ddy mice [3] = assay: Open field test; conditions: for Proportion (%) of Time of Stay in Center Circle / Proportion (%) of Number of Entries into Center Circle: 30 minutes before the test; for Proportion (%) of Time of Stay in Center Circle: control 0.3; for Proportion (%) of Number of Entries into Center Circle: control 1.5
Procedure: An open field test was conducted as a behavior test used for screening an antianxiety drug. […] […] Here, in this open field test, a circular field consisting of a plurality of concentric circles with a common center with different radii was used. The circle closest to the center in the field is considered as the center of the field, and the time in which a mouse placed in the center of the field stays in the center of the field is measured.
The peptide NLPPLT synthesized in Production Example 2 was administered at a dose of 10 μg, 30 μg or 100 μg per 1 kg body weight to male ddy mice 30 minutes before the test, and 30 minutes later, each mouse was put in the center of the field to conduct the test (peptide NLPPLT administration group, n=5). For five minutes after starting, the time of stay was recorded.
Moreover, as a control, the same test was conducted using male ddy mice to which the peptide as the test substance was not administered (control group, n=5-6).
From the obtained results, the proportions (%) of the time of stay were calculated as an indicator of the anxiolytic activity.

## NS(=O)(=O)c1cccc2c1c([N+](=O)[O-])cc1nc(O)c(O)nc12 [AMPA Antagonist, NBQX, reference compound]
Male ddy mice [1]; Table 7, NBQX 10 mg/kg (i.p.) alone
  Immobile Time: 69.8 s

## NLPPLT [Peptide NLPPLT]
Male ddy mice [2]; Table 2, peptide alone (dose not given; 10 μg/kg), control 20.9
  Proportion (%) of Time of Stay on Open Arms: 33.1%
Male ddy mice [2]; Table 2, peptide alone (dose not given; 10 μg/kg), control 26.7
  Proportion (%) of Number of Entries into Open Arms: 35.1%
Male ddy mice [2]; Table 3, 3 μg/kg, 30 minutes before the test, control 15.4
  Proportion (%) of Time of Stay on Open Arms: 19.9%
Male ddy mice [2]; Table 3, 3 μg/kg, 30 minutes before the test, control 22.7
  Proportion (%) of Number of Entries into Open Arms: 23.4%
Male ddy mice [2]; Table 3, 10 μg/kg, 30 minutes before the test, control 15.4
  Proportion (%) of Time of Stay on Open Arms: 24.4%
Male ddy mice [2]; Table 3, 10 μg/kg, 30 minutes before the test, control 22.7
  Proportion (%) of Number of Entries into Open Arms: 31.7%
Male ddy mice [2]; conclusion in words
  Anxiolytic activity (time of stay on / entries into open arms compared to control): has an anxiolytic activity
Male ddy mice [3]; 0.01 mg/kg
  Proportion (%) of Time of Stay in Center Circle: 0.6%
  Proportion (%) of Number of Entries into Center Circle: 1.7%
Male ddy mice [3]; 0.03 mg/kg
  Proportion (%) of Time of Stay in Center Circle: 0.7%
  Proportion (%) of Number of Entries into Center Circle: 1.6%
Male ddy mice [3]; 0.1 mg/kg
  Proportion (%) of Time of Stay in Center Circle: 0.8%
  Proportion (%) of Number of Entries into Center Circle: 2.1%
Male ddy mice [3]; conclusion in words
  Anxiolytic activity (time of stay in center compared to control): has an anxiolytic activity
Male ddy mice [1]; Table 6, 0.01 mg/kg
  Immobile Time (second): 15.7* second
Male ddy mice [1]; Table 6, 0.03 mg/kg
  Immobile Time (second): 27.1* second
Male ddy mice [1]; Table 7, NLPPLT 0.01 mg/kg (p.o.) alone
  Immobile Time: 23.0 s
Male ddy mice [1]; conclusion in words
  Antidepressive activity (time with immobile behavior compared to control): has an antidepressive activity
